Columns and labels:
HIV-1BaL = HIV-1BaL replication in acutely infected PHA-stimulated PBMC, p24 ELISA; type: cell-based
Procedure: (§1) FIG. 4—Peripheral blood mononuclear cells (PBMC) were isolated from heparinized blood from HIV-1-, HIV-2-, and hepatitis B-seronegative donors and obtained on Ficoll-Hypaque density gradients. Cells were washed twice, stimulated with 5 mg/ml phytohemagglutinin (PHA), and cultured in RPMI-1640 medium supplemented with 5 mM Hepes, 19 mM sodium bicarbonate, 10 mg/mL gentamycin, and 10% heat-inactivated fetal calf serum at a concentration of 2×10^6 cells/ml. After 3 days of incubation stimulated PBMC were recovered from the flasks and infected for 2 hours with (a) HIV-1AT at a multiplicity of infection of 0.001, (b) HIV-1BaL at a multiplicity of infection of 0.006 and (c) HIV-1BaL or HIV-1AT at a multiplicity of infection of 0.01 or 0.001, respectively. HIV-infected and mock-infected PBMC were washed twice to remove unbound virus and cultured for 4 to 7 days in different concentrations of APHS. After 4 and 5 days of incubation samples of culture supernatant were collected and p24-core antigen production was quantified using the enzyme-linked immunosorbent assay (ELISA) system of John Moore.
Peripheral blood mononuclear cell (PBMC) fractions are isolated from heparinised blood from HIV-1-, HIV-2- and hepatitis B- seronegative donors (Blood-bank, Utrecht, the Netherlands) by Ficoll-Isopaque gradient separation. Cells are washed twice, stimulated with 4 μg/ml phytohemagglutinin (PHA), and cultured in RPMI-1640 medium supplemented with 5 mM Hepes, 19 mM sodium bicarbonate, 10 μg/ml gentamycin, and 10% heat-inactivated fetal calf serum at a concentration of 1×10^6 cells/ml.
(A, B) Peripheral blood mononuclear cells (PBMC) were isolated from heparinized blood from HIV-1-, HIV-2-, and hepatitis B- seronegative donors and obtained on Ficoll-Hypaque density gradients. […] After 2 days of incubation samples of culture supernatant were collected. p24-core antigen production was quantified using the enzyme-linked immunosorbent assay (ELISA) system of John Moore.

[1] = test system: drug-resistant HIV strains; conditions: drug-resistant vs sensitive strain
[2] = Toxicity determinations of anti-viral compounds (Table 3); type: cell-based
HIV-1Ba-L [3] = test: HIV-1 production of chronically infected PBMC, p24 ELISA; type: cell-based; conditions: APHS added 5 days after infection, 2 days incubation (FIG. 6B)
Procedure: (A, B) Peripheral blood mononuclear cells (PBMC) were isolated from heparinized blood from HIV-1-, HIV-2-, and hepatitis B- seronegative donors and obtained on Ficoll-Hypaque density gradients. Cells were washed twice, stimulated with 5 μg/ml phytohemagglutinin (PHA), and cultured in RPMI-1640 medium supplemented with 5 mM Hepes, 19 mM sodium bicarbonate, 10 μg/mL gentamycin, and 10% heat-inactivated fetal calf serum (PBMC culture medium) at a concentration of 2×10^6 cells/ml. After 3 days of incubation stimulated PBMC were recovered from the flasks and infected for 2 hours with HIV-1Ba-L at a multiplicity of infection of 0.01. Afterwards, HIV-infected and mock-infected PBMC were washed twice to remove unbound virus. (A) PBMC were cultured at a density of 6×10^5 cells/well with different concentrations of APHS and after 5 days of incubation samples of culture supernatant were collected. (B) PBMC were cultured in suspension at a concentration of 2×10^6 cells/ml in Teflon flasks in PBMC culture medium. […] After 2 days of incubation samples of culture supernatant were collected. p24-core antigen production was quantified using the enzyme-linked immunosorbent assay (ELISA) system of John Moore. […]

[4] = test system: monocyte-derived macrophages (MDM); test: MDM viability, MTT cytotoxicity assay; type: cell-based, human; conditions: 4 day incubation
Procedure: FIG. 3—Monocyte-derived macrophages (MDM) were obtained like described in legend of FIG. 2. […] After a 4 day incubation period, cellular viability was assessed by MTT cytotoxicity assay where viable cells convert MTT into a colored formazan dye that can be measured spectrophotometrically.
Cell viability is assessed by the MTT assay. In short, cells are incubated with MTT 3-(4,5-dimethylthiazol-2-yl)-2,5-diphenyltetrazollumbromide (Sigma) for 2 hours at 37° C. During this time viable cells convert MTT into […] formazan dyes. Afterwards crystals are solubilized with a solution containing isopropanol. The OD of the supernatant is measured at 550 nm.
Monocyte-derived macrophages (MDM) were obtained like described above. […] After a 4 days incubation period cellular viability was assessed by MTT cytotoxicity assay where viable cells convert MTT into a colored formazan dye that can be measured spectrophotometrically.

HIV-1Ba-L [5] = test: HIV-1Ba-L replication in acutely infected monocyte-derived macrophages, p24 ELISA; type: cell-based; conditions: 30 μM APHS, acutely infected MDM, moi 0.02
Procedure: Concentrations above 0.3 μM APHS inhibit p24 production. 30 μM APHS inhibits HIV-1 replication by 88%.
Cells are washed twice and monocytes are purified by countercurrent centrifugal elutriation.

HIV-1 [6] = conditions: Table 3
Procedure: MDM, and PBMC, were incubated with HIV at a multiplicity of infection of 0.02, and 0.006 or 0.001, respectively. After two hours cells are washed to remove unbound virus and cultured for 4 to 7 days in different concentrations of the drug under investigation. On day 4, 5 and 7, 0.01 ml of supernatant is removed from the culture and virus in culture supernatant is inactivated in a final concentration of 0.05% empigen (Calbiochem-Novabiochem Co., La Jolla, Calif.). The presence of HIV-1 in the inactivated supernatant is monitored by checking for the p24-core antigen using the enzyme-linked immunosorbent assay (ELISA) system of John Moore.

PBMC = PBMC viability, WST-1 cytotoxicity assay; type: cell-based, human; conditions: 5 days incubation
Procedure: FIG. 5—PBMC were obtained and stimulated as described in legend of FIG. 4. […] After a 5 days incubation period, cellular viability was assessed by WST-1 cytotoxicity assay where viable cells convert WST-1 into a coloured formazan dye that can be measured spectrophotometrically.
Cell viability is assessed with WST-1 assay. Cells are incubated with the tetrazolium salt WST-1 (4-[3-(4-lodophenyl)-2-(4-nitrophenyl)-2H-5-tetrazolio]-1,3-benzene disulfonate) for 2 hours at 37° C. During this time viable cells convert WST-1 into water-soluble formazan dyes. The OD of the supernatant is measured at 550 nm.

HIV-1Ba-L [7] = test: HIV-1 production by chronically infected MDM, p24 ELISA; type: cell-based; conditions: APHS added 5 days after infection, 2 days incubation (FIG. 6D)
HIV-1 [8] = conditions: PBMC, FIG. 4
Procedure: as §1

Row | SMILES | inhibition of HIV-1BaL production (HIV-1BaL; 1 μM APHS, PBMC, lower infectivity (FIG. 4c)) [%] | inhibition of HIV-1Ba-L replication (HIV-1BaL; 30 μM APHS, acutely infected PBMC, moi 0.01 (FIG. 6A)) [%] | inhibition of HIV-1BaL replication (HIV-1BaL; PBMC, FIG. 4) [%] | APHS concentrations that inhibit HIV-1Ba-L replication (HIV-1BaL; acutely infected PBMC, moi 0.01, 5 days (FIG. 6A)) | inhibitory activity against drug resistant strains relative to a sensitive strain [1] | not toxic at [2] [µM] | inhibition of HIV-1 production of chronically infected PBMCs (HIV-1Ba-L [3]) | cytotoxicity (MTT) [4] | inhibition of HIV-1 replication (HIV-1Ba-L [5]) [%] | IC50 (HIV-1 [6]) [µM] | concentrations found to reduce viability (WST-1) (PBMC) [µM] | inhibition of HIV-1 production by chronically infected MDM (HIV-1Ba-L [7]) | APHS concentrations that inhibit HIV-1 production (HIV-1 [8])
1 | CCCCC#CCSc1ccccc1OC(C)=O [APHS, o-(acetoxy-phenyl)hept-2-ynyl sulfide] | 50 | 100 | 100 | above 3 μM | two- to four-fold higher | 30 | does not inhibit | None of the tested concentrations of APHS was found to be cytotoxic | 88 | 10 | ≥ 100 | does not inhibit | above 1 μM
2 | CCCCC#CCSc1ccccc1OCCCC [BPHS] |  |  |  |  |  | 30 |  |  |  | 40 |  |  | 

— patent publication US20050059745A1, “Antiviral therapy” (priority 1999, published 2005)
